Laboratory results from PMC10485906, “Development of a Dihydroquinoline–Pyrazoline GluN2C/2D-Selective Negative Allosteric Modulator of the N-Methyl-D-aspartate Receptor” (ACS Chemical Neuroscience, 2023).
Where “and” joins values, the source holds several entries; their conditions need not be identical. Equal values may be shown once. Marks after values point to notes of the source that are not given here.

What was measured:
CYP3A4 = CYP3A4 (Homo sapiens, UniProt P08684); assay: biochemical
Plasma stability, human = assay type: in vitro ADME; settings: both sexes; for half-life at 3 μM: human plasma, incubation up to 120 min, read-out: plasma stability T1/2, human; for remaining at 120 min, 3 µM: plasma, over the assay time course
Procedure: Human plasma (lithium heparin (LiHep) mixed, gender pooled, 0.2 μm filtered) and mouse plasma (BALB/C, LiHep mixed, male pooled, 0.2 μm filtered) were purchased from BioIVT. Procaine (Sigma-Aldrich) served as a positive control for both human and mouse plasma experiments. Test compounds and positive controls were initially dissolved in DMSO to make 10 mM stock solutions. The solutions of test and control compounds were then further diluted in 70% MeOH/H2O or 100% MeCN to 500 μM. Next, the human or mouse plasma (994 μL) was aliquoted into 1.5 mL Eppendorf tubes with duplicates (reactions A and B) being prepared for each compound. The plasma was then incubated at 37 °C for 10 min. Afterward, the reaction was initiated by the addition of the test compound (6 μL of 500 μM solution) and further incubated at 37 °C for the designated time course of the study. This procedure provided duplicate experiments with a final volume of 1000 μL (<0.6% organic solvent content) and a final test compound concentration of 3 μM. Aliquots (100 μL) were removed from each reaction mixture at 0, 15, 30, 60, and 120 min time intervals and quenched with 150 μL of cold ISTD solution (2 μM 7-ethoxy-d5-coumarin in MeOH or MeCN). Quenched aliquots were then centrifuged at 15,000 g for 30–45 min, and the resulting supernatants (∼70 μL) were withdrawn and placed in LC-MS vials to be analyzed by LC-MS/MS (Agilent G6460C QQQ MS coupled with an Infinity II 1260 HPLC). Each test compound was run in tandem with positive and negative control experiments for quality assurance. The positive control reaction was conducted at a final volume of 1000 μL for a single run at each time point. Finally, the negative control experiment was conducted with test compounds in DPBS (143 μL) and analyzed at the 120 min time point.
For both LM and plasma assays, each data point was analyzed in triplicate using between blank washes to avoid carry over and to equilibrate the column for the subsequent runs. Averages of these triplicates for individual compounds at each time point were then normalized to the data at 0 min, representing 100% of the test compound remaining or 0% metabolism. Half-lives (t1/2) were calculated by plotting ln of % test compound remaining versus time and performing linear regression to determine slope. Slope = −k and t1/2 = 0.693/k for first-order kinetics (see Figures S5 and S6 for a representative example).

GluN1/GluN2B [1] = target: T1, GluN1/GluN2B (Rattus norvegicus, UniProt P35439+Q00960); assay: Two-electrode voltage-clamp recordings, Xenopus laevis oocytes, GluN1/GluN2B; assay type: cell-based; settings: 100 μM glutamate, 30 μM glycine; for IC50: read-out: IC50 GluN2B [95% CI]; for remaining activity at 30 µM: 30 μM test compound, mean ± SEM, read-out: I 30 μM / I control GluN2B
T1 construct: GluN2B (NM_012574.1), GluN2C (NM_012575.3), and GluN2D (NM_022797.2) were provided by; expressed in transfected cells; host or cells: Xenopus laevis oocytes (cRNA injection)
Procedure: (§1) All target compounds were evaluated for NMDAR antagonism using two-electrode voltage-clamp recordings from Xenopus laevis oocytes coexpressing recombinant GluN1 and GluN2A-D subunits (Table 1).[32],[42],[33] All analogues were assessed as either a racemic (2b, 2e–2r) or diastereomeric (2d) mixture to simplify purification and streamline in vitro analysis. […] Moreover, as illustrated by the significant loss of NMDAR activity observed with nitrile 2e, the DQP allosteric site necessitated an H-bond donor/acceptor relationship at the carboxylate position. […] The loss of NMDAR activity observed with the trifluoro analogue 2j (Table S1) reinforced the necessity for an H-bond donor/acceptor relationship to maintain allosteric binding and established that fluorine substitution alone is ineffective. […] A single methyl substitution of the amide in compound 2q improved selectivity against GluN2A and had similar potency as 2a, whereas dual methyl substitution reduced potency (2r). We expect that this is likely due to the ability of the […] of the amide to accept hydrogen bonds while the amide can readily donate a proton.
(§2) Unfertilized Xenopus laevis oocytes were obtained from Ecocyte (Austin, TX), or ovaries were purchased from Xenopus 1 (Dexter, MI) and oocytes prepared as previously described.[42],[47] Two-electrode voltage-clamp recordings were performed on oocytes expressing recombinant rat GluN1/GluN2A, GluN1/GluN2B, GluN1/GluN2C, or GluN1/GluN2D. cDNAs for rat GluN1-1a (referred to as GluN1; NCBI Reference Sequence NM_017010.2), GluN2A (NM_012573.4), GluN2B (NM_012574.1), GluN2C (NM_012575.3), and GluN2D (NM_022797.2) were provided by Dr. S. Heinemann from the Salk Institute, Dr. S. Nakanishi from Kyoto University, and Dr. P. Seeburg from the University of Heidelberg. Oocyte isolation, cRNA synthesis, and cRNA injections were performed as previously described.[32],[33],[47] Briefly, Xenopus laevis oocytes were injected with 5–10 ng of cRNA in RNase-free water with the GluN1:GluN2 ratio ranging from 1:1 to 1:5. Oocytes were incubated at 15–19 °C in Barth’s solution consisting of (in mM) 88 NaCl, 1 KCl, 2.4 NaHCO3, 10 HEPES, 0.82 MgSO4, 0.33 Ca(NO3)2, and 0.41 CaCl2 supplemented with 100 μg/mL gentamycin, 40 μg/mL streptomycin, and 50 μg/mL penicillin. Recordings were performed 2–4 days after injection with extracellular recording solution containing (in mM) 90 NaCl, 1 KCl, 10 HEPES, 0.5 BaCl2, and 0.01 EDTA at pH 7.4 adjusted with NaOH. To prevent a gradual increase in current response over the course of the experiment, some oocytes expressing GluN1/GluN2A were injected with 20–50 nL of 2–50 mM K-BAPTA. Concentration–response curves for test compounds were generated by applying a maximally effective concentration of glutamate (100 μM) and glycine (30 μM), followed by glutamate and glycine with variable concentrations of test compounds up to 30 μM. The test compounds were prepared as 20 mM stock solutions in DMSO and diluted to the final concentration in recording solution. The DMSO content was 0.05–0.5% (v/v). […] Methods for off-target analysis are given in the Supporting Information.
(§3) Confidence intervals were determined for the log(IC50). The time course of relaxation during inhibitor application or deactivation following rapid removal of NMDA or glutamate was fitted by the equation [drawing 5] 2

GluN1/GluN2B [2] = target: T2, GluN1/GluN2B (Rattus norvegicus, UniProt Q00960); assay: as above; assay type: cell-based; settings: mean ± SEM; for I3 μM/Icontrol GluN2B: tested at 3 μM; for I3 μM/Icontrol GluN2B / I / I control GluN2B: 100 μM glutamate, 30 μM glycine; for I / I control GluN2B: tested at 10 μM (footnote b)
T2 construct: GluN2B (NM_012574.1), GluN2C (NM_012575.3), and GluN2D (NM_022797.2) were provided by; expressed in transfected cells; host or cells: Xenopus laevis oocytes (cRNA injection)
Procedure: as §1, §2, §3

T1 sequence (Q00960 27-1482, other chains not shown): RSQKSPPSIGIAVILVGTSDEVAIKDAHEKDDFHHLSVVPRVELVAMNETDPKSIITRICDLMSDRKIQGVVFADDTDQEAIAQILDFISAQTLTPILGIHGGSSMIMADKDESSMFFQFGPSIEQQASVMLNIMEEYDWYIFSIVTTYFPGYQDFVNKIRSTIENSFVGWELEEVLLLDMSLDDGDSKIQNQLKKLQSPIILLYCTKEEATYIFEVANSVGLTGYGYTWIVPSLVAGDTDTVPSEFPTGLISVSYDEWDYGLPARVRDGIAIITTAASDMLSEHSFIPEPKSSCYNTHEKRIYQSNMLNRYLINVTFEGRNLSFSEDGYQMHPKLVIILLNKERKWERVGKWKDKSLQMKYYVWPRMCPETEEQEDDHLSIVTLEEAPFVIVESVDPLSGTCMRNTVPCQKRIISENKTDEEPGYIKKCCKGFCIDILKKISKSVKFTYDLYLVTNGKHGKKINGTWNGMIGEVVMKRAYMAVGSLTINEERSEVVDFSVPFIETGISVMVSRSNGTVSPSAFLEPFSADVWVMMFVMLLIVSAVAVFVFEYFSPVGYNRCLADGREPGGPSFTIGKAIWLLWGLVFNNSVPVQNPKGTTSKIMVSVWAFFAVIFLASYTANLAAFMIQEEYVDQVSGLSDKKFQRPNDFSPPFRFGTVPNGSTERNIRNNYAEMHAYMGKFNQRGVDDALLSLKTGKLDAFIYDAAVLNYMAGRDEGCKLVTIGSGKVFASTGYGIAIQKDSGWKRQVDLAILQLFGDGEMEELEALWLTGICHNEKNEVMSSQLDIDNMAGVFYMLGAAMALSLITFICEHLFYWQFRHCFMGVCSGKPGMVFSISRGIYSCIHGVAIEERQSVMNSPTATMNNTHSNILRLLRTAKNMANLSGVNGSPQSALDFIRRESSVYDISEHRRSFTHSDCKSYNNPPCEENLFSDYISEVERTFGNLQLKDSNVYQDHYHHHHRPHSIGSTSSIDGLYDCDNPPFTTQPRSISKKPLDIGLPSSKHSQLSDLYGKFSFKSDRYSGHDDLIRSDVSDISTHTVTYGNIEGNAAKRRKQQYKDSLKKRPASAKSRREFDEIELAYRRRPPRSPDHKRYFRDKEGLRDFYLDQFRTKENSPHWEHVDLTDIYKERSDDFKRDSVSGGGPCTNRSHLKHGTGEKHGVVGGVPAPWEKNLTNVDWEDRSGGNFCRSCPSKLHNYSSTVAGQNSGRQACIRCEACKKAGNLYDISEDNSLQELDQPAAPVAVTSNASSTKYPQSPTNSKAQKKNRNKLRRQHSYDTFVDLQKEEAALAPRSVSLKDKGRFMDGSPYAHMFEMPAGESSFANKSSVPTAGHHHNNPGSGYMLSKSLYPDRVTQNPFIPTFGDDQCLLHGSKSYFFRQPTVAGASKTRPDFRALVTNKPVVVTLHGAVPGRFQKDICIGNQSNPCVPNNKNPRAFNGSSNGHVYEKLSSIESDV
T2 sequence (Q00960 27-1482, other chains not shown): as above
CYP3A4, sequence (P08684 whole entry): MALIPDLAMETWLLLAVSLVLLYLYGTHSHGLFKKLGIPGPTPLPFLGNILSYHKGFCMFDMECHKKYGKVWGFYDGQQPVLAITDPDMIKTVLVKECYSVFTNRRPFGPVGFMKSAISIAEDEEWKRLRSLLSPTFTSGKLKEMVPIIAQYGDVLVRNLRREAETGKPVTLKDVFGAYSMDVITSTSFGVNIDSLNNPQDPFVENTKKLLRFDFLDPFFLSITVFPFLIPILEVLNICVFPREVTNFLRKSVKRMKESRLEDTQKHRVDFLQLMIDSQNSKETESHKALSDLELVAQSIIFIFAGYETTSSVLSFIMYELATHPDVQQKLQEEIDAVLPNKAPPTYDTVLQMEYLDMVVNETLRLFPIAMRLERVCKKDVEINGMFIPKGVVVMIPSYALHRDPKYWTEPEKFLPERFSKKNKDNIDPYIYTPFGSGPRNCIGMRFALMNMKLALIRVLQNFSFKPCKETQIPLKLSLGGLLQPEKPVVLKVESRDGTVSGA

Compound | IC50 (CYP3A4) | half-life at 3 μM (Plasma stability, human) | remaining at 120 min, 3 µM (Plasma stability, human) | IC50 (GluN1/GluN2B [1]) | I3 μM/Icontrol GluN2B (GluN1/GluN2B [2]) | I3 μM/Icontrol GluN2B (GluN1/GluN2B [2]; listed as racemic 2i) | remaining activity at 30 µM (GluN1/GluN2B [1]) | I / I control GluN2B (GluN1/GluN2B [2]) | % control GluN1/GluN2B (GluN1/GluN2B [2]; 1 µM compound, 100 µM glutamate, 30 µM glycine)
O=C(O)CCC(=O)N1N=C(c2c(-c3ccc(Cl)cc3)c3ccccc3[nH]c2=O)CC1c1ccc(Cl)cc1 (centres unmarked) [2a] | 17 ± 3.4 µM | > 120 min | > 95% | – | – | – | – | – | –
O=C(O)CC(F)(F)C(=O)N1N=C(c2c(-c3ccc(Cl)cc3)c3ccccc3[nH]c2=O)CC1c1ccc(Cl)cc1 (centres unmarked) [2i] | > 20 µM | > 120 min | > 95% | 16 µM | 78 ± 2.9% and 78 ± 2.9 ^b (2,10) % | 78 ± 2.9 (2, 10) % | – | – | –
CCOC(=O)CC(F)(F)C(=O)N1N=C(c2c(-c3ccc(Cl)cc3)c3ccccc3[nH]c2=O)CC1c1ccc(Cl)cc1 (centres unmarked) [2l] | 7.8 ± 0.1 µM | > 120 min | – | – | – | – | 97 ± 2% | – | –
CC(C)(C)COC(=O)CC(F)(F)C(=O)N1N=C(c2c(-c3ccc(Cl)cc3)c3ccccc3[nH]c2=O)CC1c1ccc(Cl)cc1 (centres unmarked) [2o] | 12 ± 0.04 µM | > 120 min | – | – | – | – | – | 94 ± 1.0% | –
O=C(CC(F)(F)C(=O)N1N=C(c2c(-c3ccc(Cl)cc3)c3ccccc3[nH]c2=O)CC1c1ccc(Cl)cc1)OCc1ccccc1 (centres unmarked) [2p] | > 20 µM | > 120 min | – | – | – | – | 103 ± 2.1% | – | –
CNC(=O)CC(F)(F)C(=O)N1N=C(c2c(-c3ccc(Cl)cc3)c3ccccc3[nH]c2=O)CC1c1ccc(Cl)cc1 (centres unmarked) [2q] | 7.7 ± 1.7 µM | > 120 min | – | 20 µM | – | – | – | 81 ± 8.7 ^b (3, 10) % | –
CN(C)C(=O)CC(F)(F)C(=O)N1N=C(c2c(-c3ccc(Cl)cc3)c3ccccc3[nH]c2=O)CC1c1ccc(Cl)cc1 (centres unmarked) [2r] | > 20 µM | > 120 min | – | – | – | – | – | 78 ± 4.2 ^b (4,22) % | –
O=C(O)CC(F)(F)C(=O)N1N=C(c2c(-c3ccc(Cl)cc3)c3ccccc3[nH]c2=O)C[C@H]1c1ccc(Cl)cc1 [(S)-(−)-2i] | – | – | – | 16 µM | 89 ± 6.2 (3, 18) % | – | – | – | 90 ± 3.5%

Continued by falling IC50 (CYP3A4), values first:

IC50 (CYP3A4) | half-life at 3 μM (Plasma stability, human) | remaining at 120 min, 3 µM (Plasma stability, human) | IC50 (GluN1/GluN2B [1]) | I3 μM/Icontrol GluN2B (GluN1/GluN2B [2]) | I3 μM/Icontrol GluN2B (GluN1/GluN2B [2]; listed as racemic 2i) | remaining activity at 30 µM (GluN1/GluN2B [1]) | I / I control GluN2B (GluN1/GluN2B [2]) | % control GluN1/GluN2B (GluN1/GluN2B [2]; 1 µM compound, 100 µM glutamate, 30 µM glycine) | Compound
6.7 ± 1.2 µM | > 120 min | – | – | – | – | 92 ± 2.1% | – | – | O=C(CC(F)(F)C(=O)N1N=C(c2c(-c3ccc(Cl)cc3)c3ccccc3[nH]c2=O)CC1c1ccc(Cl)cc1)OCC1CC1 (centres unmarked) [2n]
6.3 ± 1.1 µM | > 120 min | – | – | – | – | 88 ± 1.3% | – | – | CC(C)OC(=O)CC(F)(F)C(=O)N1N=C(c2c(-c3ccc(Cl)cc3)c3ccccc3[nH]c2=O)CC1c1ccc(Cl)cc1 (centres unmarked) [2m]
2 ± 0.4 µM | > 120 min | – | 3.1 µM | 28 ± 4.5 ^b (3,10) % | – | – | – | – | NC(=O)CC(F)(F)C(=O)N1N=C(c2c(-c3ccc(Cl)cc3)c3ccccc3[nH]c2=O)CC1c1ccc(Cl)cc1 (centres unmarked) [2k]
